According to PubChem BioAssay AID256 (DTP/NCI, 2004):
“And” between values parts separate entries of the source, which are not always exact repeats. Equal values may be shown once. Inconclusive results and toxic doses are left out. How the source made its calls: active means survival T/C of 150% or more; inactive means T/C below 125% in these data.

Test system: CD2F1 mice, L1210 leukemia ip, survival T/C
Experiment: NCI In Vivo Anticancer Drug Screen. Data for tumor model L1210 Leukemia (intraperitoneal) in CD2F1 (CDF1) mice
Conditions: higher = longer survival
Procedure, shortened: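 In this screen, transplantable tumors were grown in mice given either the compound or its vehicle. Results were expressed as the treated measurement relative to the control measurement.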

[1] = endpoint: mean survival time, dose: 100.0 mg/kg/injection, schedule: Q04DX003 (ip), vehicle: saline with Tween-80
[2] = endpoint: mean survival time, dose: 200.0 mg/kg/injection, schedule: Q04DX003 (ip), vehicle: saline with Tween-80
[3] = endpoint: mean survival time, dose: 100.0 mg/kg/injection, schedule: Q01DX009 (ip), vehicle: saline
[4] = endpoint: mean survival time, dose: 200.0 mg/kg/injection, schedule: Q01DX009 (ip), vehicle: saline
[5] = endpoint: mean survival time, dose: 50.0 mg/kg/injection, schedule: Q01DX009 (ip), vehicle: saline
[6] = endpoint: mean survival time, dose: 100.0 mg/kg/injection, schedule: Q01DX009 (ip), vehicle: saline with Tween-80
[7] = endpoint: mean survival time, dose: 200.0 mg/kg/injection, schedule: Q01DX009 (ip), vehicle: saline with Tween-80
[8] = endpoint: mean survival time, dose: 400.0 mg/kg/injection, schedule: Q04DX003 (ip), vehicle: saline with Tween-80
[9] = endpoint: mean survival time, dose: 50.0 mg/kg/injection, schedule: Q01DX009 (ip), vehicle: saline with Tween-80
[10] = endpoint: mean survival time, dose: 200.0 mg/kg/injection, schedule: Q01DX001 (ip), vehicle: saline with Tween-80
[11] = endpoint: mean survival time, dose: 400.0 mg/kg/injection, schedule: Q01DX009 (ip), vehicle: saline with Tween-80
[12] = endpoint: mean survival time, dose: 50.0 mg/kg/injection, schedule: Q01DX009 (ip), vehicle: Klucel (hydroxypropylcellulose) (HPC)
[13] = endpoint: mean survival time, dose: 100.0 mg/kg/injection, schedule: Q01DX009 (ip), vehicle: Klucel (hydroxypropylcellulose) (HPC)

Measured: T/C

O=C(CC(O)(C(F)(F)F)C(F)(F)F)c1ccc(Cl)cc1
inactive: endpoint: mean survival time, dose: 50.0 mg/kg/injection, schedule: Q01DX009 (ip), vehicle: other 103 % of control | endpoint: mean survival time, dose: 100.0 mg/kg/injection, schedule: Q01DX009 (ip), vehicle: other 103 % of control | [1] 107 % of control | endpoint: mean survival time, dose: 200.0 mg/kg/injection, schedule: Q01DX009 (ip), vehicle: other 87 % of control | [2] 107 % of control

CCCCC(C(=O)O)c1ccccc1 (stereo unspecified)
inactive: [3] 98 % of control | [4] 98 % of control | endpoint: mean survival time, dose: 400.0 mg/kg/injection, schedule: Q01DX009 (ip), vehicle: saline 101 % of control

NC(=S)N/N=C/c1cccnc1
inactive: [5] 109 % of control | [3] 101 % of control | [4] 106 % of control

O=NN(c1ccccc1)c1ccc([N+](=O)[O-])cc1
inactive: [6] 95 % of control | [1] 92 % of control | [7] 90 % of control | [2] 97 % of control | [8] 98 % of control

COc1ccc2occc2c1
inactive: [1] 94 % of control | [2] 94 % of control | [8] 91 % of control

COc1cc(OC)c(NC(=O)Nc2ccc(CCO)cc2)cc1Cl
inactive: [9] 93 % of control | [6] 86 % of control | [7] 93 % of control

O=C(O)c1cnc(Cl)nc1Nc1ccccc1I
inactive: [10] 86 % of control

CCNc1nc(NC(C)C)nc(SC)n1
inactive: [9] 104 % of control | [6] 101 % of control | endpoint: mean survival time, dose: 100.0 mg/kg/injection, schedule: Q04DX003 (ip), vehicle: saline 97 % of control | [7] 117 % of control | endpoint: mean survival time, dose: 200.0 mg/kg/injection, schedule: Q04DX003 (ip), vehicle: saline 101 % of control

Cn1nnc(-c2nn[nH]n2)n1
inactive: endpoint: mean survival time, dose: 100.0 mg/kg/injection, schedule: Q01DX001 (ip), vehicle: saline with Tween-80 105 % of control | [1] 106 % of control | [10] 104 % of control | [2] 98 % of control | endpoint: mean survival time, dose: 400.0 mg/kg/injection, schedule: Q01DX001 (ip), vehicle: saline with Tween-80 94 % of control | [8] 97 % of control

CC1CN(Cc2ccccc2)C1
inactive: endpoint: mean survival time, dose: 12.5 mg/kg/injection, schedule: Q01DX001 (ip), vehicle: acetone 86 % of control | endpoint: mean survival time, dose: 25.0 mg/kg/injection, schedule: Q01DX001 (ip), vehicle: acetone 96 % of control | endpoint: mean survival time, dose: 50.0 mg/kg/injection, schedule: Q01DX001 (ip), vehicle: acetone 94 % of control

CC[N](CC)[Ge]([CH2]C)[CH2]C.CC[N](CC)[Ge]([CH2]C)[CH2]C
inactive: endpoint: mean survival time, dose: 3.12 mg/kg/injection, schedule: Q01DX009 (ip), vehicle: saline 98 % of control | endpoint: mean survival time, dose: 3.12 mg/kg/injection, schedule: Q01DX009 (ip), vehicle: suspension in saline 98 % of control | endpoint: mean survival time, dose: 6.25 mg/kg/injection, schedule: Q01DX009 (ip), vehicle: saline 98 % of control | endpoint: mean survival time, dose: 6.25 mg/kg/injection, schedule: Q01DX009 (ip), vehicle: suspension in saline 114 % of control | endpoint: mean survival time, dose: 12.5 mg/kg/injection, schedule: Q01DX009 (ip), vehicle: saline 98 % of control | endpoint: mean survival time, dose: 12.5 mg/kg/injection, schedule: Q01DX009 (ip), vehicle: suspension in saline 106 % of control | endpoint: mean survival time, dose: 25.0 mg/kg/injection, schedule: Q01DX009 (ip), vehicle: saline 101 % of control | endpoint: mean survival time, dose: 25.0 mg/kg/injection, schedule: Q01DX009 (ip), vehicle: suspension in saline 97 % of control | [5] 110 % of control | endpoint: mean survival time, dose: 50.0 mg/kg/injection, schedule: Q01DX009 (ip), vehicle: suspension in saline 101 % of control

CCCCCCC[CH2][Sn]1([CH2]CCCCCCC)[O]CC2OC(n3cc(C)c(=O)[nH]c3=O)CC2[O]1 (stereo unspecified)
inactive: endpoint: mean survival time, dose: 12.5 mg/kg/injection, schedule: Q01DX005 (ip), vehicle: other 94 % of control | endpoint: mean survival time, dose: 25.0 mg/kg/injection, schedule: Q01DX005 (ip), vehicle: other 100 % of control | endpoint: mean survival time, dose: 50.0 mg/kg/injection, schedule: Q01DX005 (ip), vehicle: other 114 % of control

CCNc1ncc2ccccc2c1-c1ccc(NCCN(CCCl)CCCl)cc1
inactive: endpoint: mean survival time, dose: 25.0 mg/kg/injection, schedule: Q04DX003 (ip), vehicle: water 98 % of control | endpoint: mean survival time, dose: 50.0 mg/kg/injection, schedule: Q04DX003 (ip), vehicle: water 100 % of control | endpoint: mean survival time, dose: 100.0 mg/kg/injection, schedule: Q04DX003 (ip), vehicle: water 90 % of control

Nc1ccc2c(c1)-c1ccccc1C2O (stereo unspecified)
inactive: [1] 92 % of control | [2] 101 % of control | [8] 99 % of control

Cc1ccc(C(=O)CC#N)c(C)c1
inactive: [6] 96 % of control | [1] 98 % of control | [2] 112 % of control | [11] 90 % of control | [8] 102 % of control

CC1(CC(C)(C)C2CCCCC2)OCCO1
inactive: endpoint: mean survival time, dose: 25.0 mg/kg/injection, schedule: Q01DX009 (ip), vehicle: Klucel (hydroxypropylcellulose) (HPC) 93 % of control | [12] 95 % of control | [13] 91 % of control

CCOC(=O)NC(CCl)C(=O)OC (stereo unspecified)
inactive: [6] 104 % of control | [7] 98 % of control | [11] 98 % of control

NC(=S)c1ncnc2c1ncn2C1OC(CO)C(O)C1O (stereo unspecified)
inactive: endpoint: median survival time, dose: 8.75 mg/kg/injection, schedule: Q01DX005 (ip), vehicle: water 103 % of control | endpoint: median survival time, dose: 17.5 mg/kg/injection, schedule: Q01DX005 (ip), vehicle: water 103 % of control and 107 % of control | endpoint: median survival time, dose: 35.0 mg/kg/injection, schedule: Q01DX005 (ip), vehicle: water 120 % of control and 111 % of control | endpoint: median survival time, dose: 70.0 mg/kg/injection, schedule: Q01DX005 (ip), vehicle: water 122 % of control and 124 % of control

CCOC(=O)C(CCC(=O)O)NC(=O)OCc1ccccc1 (stereo unspecified)
inactive: [1] 97 % of control | [2] 99 % of control | [8] 91 % of control

Cc1cccc[n+]1CC(=O)c1ccc(-c2ccc(C(=O)C[n+]3ccccc3C)cc2)cc1
inactive: endpoint: mean survival time, dose: 0.15 mg/kg/injection, schedule: Q04DX003 (ip), vehicle: Klucel (hydroxypropylcellulose) (HPC) 94 % of control | endpoint: mean survival time, dose: 0.3 mg/kg/injection, schedule: Q04DX003 (ip), vehicle: Klucel (hydroxypropylcellulose) (HPC) 95 % of control | endpoint: mean survival time, dose: 0.6 mg/kg/injection, schedule: Q04DX003 (ip), vehicle: Klucel (hydroxypropylcellulose) (HPC) 97 % of control

N#CC(C#N)=NNc1ccc(S(=O)(=O)c2ccc(NN=C(C#N)C#N)cc2)cc1
inactive: [6] 103 % of control | [7] 100 % of control | [11] 103 % of control

C=CCN(CC=C)CCSC(=S)NCCOC
inactive: [9] 97 % of control | [6] 113 % of control | [7] 97 % of control

COc1ccc(CCN2CC34C=CC(O3)C(C(=O)O)C4C2=O)cc1OCc1ccccc1 (stereo unspecified)
inactive: endpoint: mean survival time, dose: 100.0 mg/kg/injection, schedule: Q04DX002 (ip), vehicle: saline with Tween-80 95 % of control | endpoint: mean survival time, dose: 200.0 mg/kg/injection, schedule: Q04DX002 (ip), vehicle: saline with Tween-80 95 % of control | endpoint: mean survival time, dose: 400.0 mg/kg/injection, schedule: Q04DX002 (ip), vehicle: saline with Tween-80 95 % of control

O=C1OC2(c3ccc(Cl)cc3Oc3cc(Cl)ccc32)c2ccccc21
inactive: endpoint: mean survival time, dose: 100.0 mg/kg/injection, schedule: Q04DX002 (ip), vehicle: Klucel (hydroxypropylcellulose) (HPC) 101 % of control | endpoint: mean survival time, dose: 200.0 mg/kg/injection, schedule: Q04DX002 (ip), vehicle: Klucel (hydroxypropylcellulose) (HPC) 97 % of control | endpoint: mean survival time, dose: 400.0 mg/kg/injection, schedule: Q04DX002 (ip), vehicle: Klucel (hydroxypropylcellulose) (HPC) 89 % of control

Cc1ccc(C(C)(C)C[P+](C)(c2ccccc2)c2ccccc2)cc1
inactive: [12] 100 % of control | [13] 102 % of control

O=C(NN=C1CCCCC1)c1ccccc1
inactive: [6] 100 % of control | [1] 97 % of control | [7] 100 % of control | [2] 100 % of control | [8] 101 % of control
